Data as given in patent US10722520B2, “Heterocyclic compounds and their use in preventing or treating bacterial infections” (MUTABILIS, priority 2016, dated 2020).
Where a name gives a salt, the structure may show the parent alone. Read-outs that look alike come from different tables or passages of the source.

Assays:
[1] = biological target: OXA-1 (Escherichia coli, UniProt P13661)
[2] = biological target: AmpC (PAE) (Pseudomonas aeruginosa, UniProt P24735); assay: biochemical
[3] = biological target: CTX-M-15 (Escherichia coli, UniProt Q9EXV5)
[4] = biological target: AmpC (P99) (Enterobacter cloacae, UniProt P05364); assay: biochemical
[5] = biological target: CMY-37 (Citrobacter freundii, UniProt P05193); conditions: read-out: IC50 β-lactamase CMY-37
[6] = biological target: OXA-15 (Pseudomonas aeruginosa, UniProt Q51574); assay: biochemical
[7] = biological target: SHV-1 (Klebsiella pneumoniae, UniProt P0AD64)
[8] = biological target: OXA-11 (Pseudomonas aeruginosa, UniProt Q06778)
[9] = biological target: OXA-48 (Klebsiella pneumoniae, UniProt Q6XEC0)
[10] = tested on: K. pneumoniae BAA-1898; assay: MIC of compound alone, broth microdilution; format: cell-based; conditions: Klebsiella pneumoniae, BAA1898; strain BAA-1898; compound alone; read-out: MIC compounds of the invention alone
Method in brief: (§1)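 Step one, log-phase suspension set to 5×10^5 cfu/mL final in CA-MHB. Step two, incubation at 35° C under ambient air for 16-20 h. Step three, visual reading of the lowest growth-free concentration as MIC.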

[11] = tested on: K. pneumoniae 6299; assay: MIC of compound alone, broth microdilution; format: cell-based; conditions: Klebsiella pneumoniae; strain 6299; compound alone; read-out: MIC compounds of the invention alone
Method in brief: as §1

[12] = tested on: E. cloacae P99; assay: MIC of compound alone, broth microdilution; format: cell-based; conditions: Enterobacter cloacae; strain P99; compound alone; read-out: MIC compounds of the invention alone
Method in brief: as §1

[13] = tested on: P. aeruginosa CIP107051; assay: MIC of compound alone, broth microdilution; format: cell-based; conditions: Pseudomonas aeruginosa; strain CIP107051; compound alone; read-out: MIC compounds of the invention alone
Method in brief: as §1

[14] = tested on: E. coli 190317; assay: MIC of compound alone, broth microdilution; format: cell-based; conditions: Escherichia coli; strain 190317; compound alone; read-out: MIC compounds of the invention alone
Method in brief: as §1

[15] = biological target: TEM-1 (Escherichia coli, UniProt P62593)
[16] = biological target: KPC-2 (Klebsiella pneumoniae, UniProt Q9F663)
[17] = class (C), nitrocefin 200 μM, 30-min pre-incubation, enzyme 0.2 nM

Structure (SMILES) | IC50 [1] | IC50 [2] | IC50 [3] | IC50 [4] | IC50 [5, 17] | IC50 [6] | IC50 [7] | IC50 [8] | IC50 [9] | MIC [10] | MIC [11] | MIC [12] | MIC [13] | MIC [14] | IC50 [15] | IC50 [16] | IC50 [5]
NCCONC(=O)c1cn(C2=CC3CN(C2)C(=O)N3OS(=O)(=O)O)nn1 (stereo not drawn) [Example 63, [3-[4-(2-aminoethoxycarbamoyl)triazol-1-yl]-7-oxo-1,6-diazabicyclo[3.2.1]oct-3-en-6-yl]hydrogen sulfate] | 52 nM | 530 nM | 0.53 nM | 19 nM | 55 nM | 41 nM | 6.9 nM | 110 nM | 0.97 nM | 32 µg/mL | > 32 µg/mL | 16 µg/mL | > 32 µg/mL | 8 µg/mL | 0.86 nM | 4.7 nM | –
NC(=O)CNCc1cn(C2=CC3CN(C2)C(=O)N3OS(=O)(=O)O)nn1 (stereo not drawn) [Example 66, [3-(4-(2-(methylamino)acetamide)triazol-1-yl)-7-oxo-1,6-diazabicyclo[3.2.1]oct-3-en-6-yl]hydrogen sulfate] | 87 nM | 250 nM | 0.54 nM | 14 nM | 26 nM | 7.5 nM | 3.1 nM | 140 nM | 0.64 nM | 16 µg/mL | 32 µg/mL | 8 µg/mL | > 32 µg/mL | 4 µg/mL | 0.36 nM | 6.1 nM | –
O=C1N2CC(n3cc(CNCCO)nn3)=CC(C2)N1OS(=O)(=O)O (stereo not drawn) [Example 67, [3-(4-(2-(methylamino)ethanol)triazol-1-yl)-7-oxo-1,6-diazabicyclo[3.2.1]oct-3-en-6-yl]hydrogen sulfate] | 270 nM | 720 nM | 1.3 nM | 38 nM | 100 nM | 18 nM | 8.4 nM | 250 nM | 1.6 nM | > 32 µg/mL | > 32 µg/mL | 4 µg/mL | > 32 µg/mL | 2 µg/mL | 1.2 nM | 20 nM | –
O=C1N2CC(n3nccc3CCO)=CC(C2)N1OS(=O)(=O)[O-].[Na+] (stereo not drawn) [Example 68, sodium [3-[5-(2-hydroxyethyl)pyrazol-1-yl]-7-oxo-1,6-diazabicyclo[3.2.1]oct-3-en-6-yl]sulfate] | 1200 nM | 430 nM | 7.1 nM | 170 nM | – | 4100 nM | 2.8 nM | 3900 nM | 49 nM | > 32 µg/mL | > 32 µg/mL | > 32 µg/mL | > 32 µg/mL | > 32 µg/mL | 0.73 nM | 300 nM | 130 nM
O=C1N2CC(n3ccnc3CO)=CC(C2)N1OS(=O)(=O)[O-].[Na+] (stereo not drawn) [Example 70, sodium [3-[2-(hydroxymethyl)imidazol-1-yl]-7-oxo-1,6-diazabicyclo[3.2.1]oct-3-en-6-yl]sulfate] | 92 nM | 600 nM | 3.5 nM | 94 nM | – | 30 nM | 2.3 nM | 170 nM | 6.2 nM | 32 µg/mL | > 32 µg/mL | > 32 µg/mL | > 32 µg/mL | 32 µg/mL | 0.63 nM | 51 nM | 120 nM
O=C1N2CC(n3cc(CO)cn3)=CC(C2)N1OS(=O)(=O)[O-].[Na+] (stereo not drawn) [Example 71, sodium [3-[4-(hydroxymethyl)pyrazol-1-yl]-7-oxo-1,6-diazabicyclo[3.2.1]oct-3-en-6-yl]sulfate] | 450 nM | 47 nM | 0.78 nM | 19 nM | – | 55 nM | 9.6 nM | 260 nM | 12 nM | 16 µg/mL | 32 µg/mL | 16 µg/mL | > 32 µg/mL | 4 µg/mL | 1.4 nM | 42 nM | 10 nM
O=C(NCCN1CCOCC1)c1ccn(C2=CC3CN(C2)C(=O)N3OS(=O)(=O)O)n1 (stereo not drawn) [Example 72, [3-[3-(2-morpholinoethylcarbamoyl)pyrazol-1-yl]-7-oxo-1,6-diazabicyclo[3.2.1]oct-3-en-6-yl]hydrogen sulfate] | 100 nM | 540 nM | 0.57 nM | 43 nM | 86 nM | 43 nM | 6.7 nM | 36 nM | 2.5 nM | > 32 µg/mL | > 32 µg/mL | > 32 µg/mL | > 32 µg/mL | > 32 µg/mL | 0.91 nM | 7 nM | –
O=C(Nc1ccn(C2=CC3CN(C2)C(=O)N3OS(=O)(=O)O)n1)c1cncs1 (stereo not drawn) [Example 77, [3-[3-[thiazole-5-carbonyl]amino]pyrazol-1-yl]-7-oxo-1,6-diazabicyclo[3.2.1]oct-3-en-6-yl]hydrogen sulfate] | 140 nM | 58 nM | 1.5 nM | 11 nM | 7.1 nM | 46 nM | 5.2 nM | 16 nM | 7.8 nM | > 32 µg/mL | > 32 µg/mL | > 32 µg/mL | > 32 µg/mL | > 32 µg/mL | 1.1 nM | 11 nM | –
O=C(Nc1ncns1)c1ccn(C2=CC3CN(C2)C(=O)N3OS(=O)(=O)O)n1 (stereo not drawn) [Example 79, [7-oxo-3-[3-(1,2,4-thiadiazol-5-ylcarbamoyl)pyrazol-1-yl]-1,6-diazabicyclo[3.2.1]oct-3-en-6-yl]hydrogen sulfate] | 65 nM | 95 nM | 0.46 nM | 14 nM | 8.6 nM | 46 nM | 0.98 nM | 19 nM | 4.7 nM | > 32 µg/mL | > 32 µg/mL | > 32 µg/mL | > 32 µg/mL | > 32 µg/mL | 0.36 nM | 4.4 nM | –
O=C(Nc1ccccn1)c1ccn(C2=CC3CN(C2)C(=O)N3OS(=O)(=O)[O-])n1.[Na+] (stereo not drawn) [Example 80, sodium [7-oxo-3-[3-(2-pyridylcarbamoyl)pyrazol-1-yl]-1,6-diazabicyclo[3.2.1]oct-3-en-6-yl]sulfate] | 30 nM | 150 nM | 0.29 nM | 7.9 nM | – | 11 nM | 1.4 nM | 5.5 nM | 0.86 nM | > 32 µg/mL | > 32 µg/mL | > 32 µg/mL | > 32 µg/mL | > 32 µg/mL | 0.27 nM | 2.6 nM | 12 nM
O=C(N[C@H]1CCNC1)c1ccn(C2=CC3CN(C2)C(=O)N3OS(=O)(=O)O)n1 (stereo partly drawn) [Example 82, [7-oxo-3-[3-[[(3S)-pyrrolidin-3-yl]carbamoyl]pyrazol-1-yl]-1,6-diazabicyclo[3.2.1]oct-3-en-6-yl]hydrogen sulfate] | 110 nM | 270 nM | 0.89 nM | 32 nM | 61 nM | 47 nM | 4.9 nM | 22 nM | 3.2 nM | 32 µg/mL | 32 µg/mL | 4 µg/mL | > 32 µg/mL | 2 µg/mL | 0.58 nM | 10 nM | –
O=C(N[C@@H]1CCNC1)c1ccn(C2=CC3CN(C2)C(=O)N3OS(=O)(=O)O)n1 (stereo partly drawn) [Example 83, [7-oxo-3-[3-[[(3R)-pyrrolidin-3-yl]carbamoyl]pyrazol-1-yl]-1,6-diazabicyclo[3.2.1]oct-3-en-6-yl]hydrogen sulfate] | 37 nM | 230 nM | 0.64 nM | 24 nM | 63 nM | 32 nM | 3.8 nM | 24 nM | 3.2 nM | 8 µg/mL | 32 µg/mL | 8 µg/mL | > 32 µg/mL | 2 µg/mL | 0.27 nM | 7.9 nM | –
